This is an account of results in US9968583B2, “Method of manufacture of liposome composition” (EISAI R & D MANAGEMENT CO., LTD., priority 2009, dated 2018).

What is called MRT is the average time that molecules of a dose stay in the body. Usually clearance stands for the volume of plasma or blood freed of the substance per unit of time. Low readings indicate inefficient removal, high ones efficient removal. The term half-life denotes how long it takes for the measured level to halve. Read a high half-life as slow loss. A word on the AUC(0-inf): it is the area under the concentration-time curve extrapolated to infinity. High values mean more exposure, low ones less exposure. By AUC(0-t) is commonly meant exposure summed from dosing to a finite time, without extrapolation to infinity. A higher AUC(0-t) goes with more exposure. One may read the Cmax as the maximum level reached in the sampled fluid or tissue. The Tmax is the time from dosing to the highest level.

Data set [1] in a line: Body weight of WiDr cancer-bearing nude mice (Embodiment 10). In kind it is in vivo. The conditions noted are these: average body weight; 2.5 mg/kg single dose; 5 days after administration. Here is the method:
(§1) WiDr (obtained from Dainippon Sumitomo Pharma Co., Ltd.), which is a human colon cancer cell line, was cultured and grown in a 10% bovine fetal serum-containing RPMI1640 culture. The cells were separated from the flask using 0.05% Trypsin-EDTA solution and collected. After washing with PBS, the cells were suspended in Hank's Balanced Salt Solution (manufactured by GIBCO) so as to be 5×10^7 cells/mL and kept on ice. 100 μL of cell suspension liquid was subcutaneously injected in the right ventral portion of 6- to 8-week old nude mice (CLEA Japan, Inc.). Each mouse was observed daily, and notes were made appropriately in cases where abnormal conditions were found. Calipers were used to measure the tumor size over time, and the tumor size was calculated based on the calculation formula: major axis×(minor axis squared)÷2. Moreover, the mouse body weight was also measured over time. At the point when the tumor size was 100 to 200 mm^3, the mice were separated into groups such that the average values of the tumor sizes and the mouse body weights were uniform among the test groups (five mice per test group). […]
(§2) The tumor-growth suppression effect and the body weight loss 5 days after administration were statistically analyzed by a parametric method. […]

Data set [2] concerns WiDr, human colon cancer cell line. Nature of the data set: Therapeutic effect of E7107 on tumor growth in WiDr cancer-bearing nude mice (Embodiment 10). The conditions noted are these: 2.5 mg/kg single dose into caudal vein; 5 days after administration. In kind it is in vivo. As for the experimental part:
as §1, §2

Data set [3] in a line: Measurement of the entrapment ratio (ultracentrifugation, HPLC of active compound in the filtrate). The data set is classed as physicochemical. The conditions noted are these: E7107, internal phase 250 mM HP-β-cyclodextrin/100 mM citric acid (pH=5.5). Here is the method:
The entrapment ratio was determined as described below.
The entrapment ratio was calculated using the formula below.

Data set [4] is described as follows: Eribulin mesylate blood plasma and tumor tissue PK in LOX cancer-bearing mice (Embodiment 11). The conditions noted are these: female, NU/NU nude, mouse, iv. In kind it is in vivo. Here is the method:
A blood sample was taken and tumor tissue extraction was carried out with a cardiac puncture at fixed periods after administration (15 minutes, 30 minutes, 1, 2, 4, 8, 12, 24, 36, and 48 hours) (n=3). The blood was sampled in a test tube containing heparin, and within 30 minutes of the sampling, the blood was separated by centrifuging at 1,500×g for 10 minutes at 4° C. to obtain the blood plasma. All of the tumor tissue was extracted, washed with PBS, and wiped with water-absorbent paper, and then the tissue weight was immediately weighed. The tissue was placed in a test tube and cooled in ice water, and then stored at −80° C. until analysis was carried out.
The PK parameters were calculated using non-compartment model analysis software (WinNonlin version 5.0.1).

A short description of data set [5]: Maximum tolerance dose of eribulin mesylate free bodies. The data set is classed as in vivo. The conditions noted are these: free body of eribulin mesylate, caudal vein, nude mice.
In data set [6] the test system is WiDr, human colon cancer cell line. Nature of the data set: Antitumor activity of eribulin mesylate in WiDr cancer-bearing nude mice (Embodiment 12, FIG. 5). Particulars: 2 mg/kg; caudal vein, 2 times in 7-day intervals; five mice per group. In kind it is in vivo. Here is the method:
WiDr, which is a human colon cancer cell line, was cultured and grown in a 10% bovine fetal serum-containing RPMI1640 culture. The cells were separated from the flask using 0.05% Trypsin-EDTA solution and collected. After washing with PBS, the cells were suspended in Hank's Balanced Salt Solution (manufactured by Gibco BRL Co. Ltd.) so as to be 5×10^7 cells/mL and kept on ice. 0.1 mL of cell suspension liquid were subcutaneously injected in the right ventral portion of 7-week old nude mice (Charles River Laboratories Japan, Inc.). Each mouse was observed daily, and notes were made appropriately in cases where abnormal conditions were found. Calipers were used to measure the tumor size over time, and the tumor size was calculated based on the calculation formula: major axis×(minor axis squared)÷2. At the point when the tumor size was 100 to 200 mm^3, the mice were separated into groups such that the average values of the tumor sizes and the mouse body weights were uniform among the test groups (five mice per test group), and the drug was administered into the caudal vein (0.2 mL/20 g; 2 times in 7-day intervals).

Data set [7] relates to ACHN, human renal cancer cell line. Briefly: Antitumor activity of eribulin mesylate in ACHN cancer-bearing nude mice (Embodiment 15, FIG. 8). The conditions noted are these: free body 2 mg/kg, 3 mg/kg and 4 mg/kg, 3 times in 7-day intervals, 45 days after the start of administration. In kind it is in vivo. As for the experimental part: ACHN (obtained from the American Type Culture Collection), which is a human renal cancer cell line, was cultured and grown in a 10% bovine fetal serum-containing MEM culture. The cells were separated from the flask using 0.05% Trypsin-EDTA solution and collected. After washing with PBS, the cells were suspended in PBS so as to be 5×10^7 cells/mL and then kept on ice. 0.1 mL of cell suspension liquid was subcutaneously injected in the right ventral portion of 6-week old nude mice (Charles River Laboratories Japan, Inc.). Each mouse was observed daily, and notes were made appropriately in cases where abnormal conditions were found. Calipers were used to measure the tumor size over time, and the tumor size was calculated based on the calculation formula: major axis×(minor axis squared)÷2. At the point when the tumor size was 150 to 200 mm^3, the mice were separated into groups such that the average values of the tumor sizes and the mouse body weights were uniform among the test groups (five mice per test group), and the drug was administered into the caudal vein (0.2 mL/20 g; 3 times in 7-day intervals).

The subject of data set [8] is FaDu, human pharyngeal squamous cell carcinoma line. Briefly: Antitumor activity of eribulin mesylate in FaDu cancer-bearing nude mice (Embodiment 14, FIG. 7). In kind it is in vivo. Particulars: 4.0 mg/kg free bodies, caudal vein, 3 times in 7-day intervals. Here is the method: FaDu (obtained from the American Type Culture Collection), which is a human pharyngeal squamous cell carcinoma line, was cultured and grown in a 10% bovine fetal serum-containing MEM culture. The cells were separated from the flask using 0.05% Trypsin-EDTA solution and collected. After washing with PBS, the cells were suspended in PBS so as to be 5×10^7 cells/mL and kept on ice. 0.1 mL of cell suspension liquid was subcutaneously injected in the right ventral portion of 6-week old nude mice (Charles River Laboratories Japan, Inc.). Each mouse was observed daily, and notes were made appropriately in cases where abnormal conditions were found. Calipers were used to measure the tumor size over time, and the tumor size was calculated based on the calculation formula: major axis×(minor axis squared)÷2. At the point when the tumor size was 100 to 200 mm^3, the mice were separated into groups such that the average values of the tumor sizes and the mouse body weights were uniform among the test groups (five mice per test group), and the drug was administered into the caudal vein (0.2 mL/20 g; 3 times in 7-day intervals).

The test system is the same in data set [9]. Briefly: Antitumor activity of eribulin mesylate in FaDu cancer-bearing nude mice (Embodiment 13, FIG. 6). The data set is classed as in vivo. The conditions noted are these: 4.0 mg/kg free bodies, caudal vein, 3 times in 7-day intervals. Here is the method:
FaDu (obtained from the American Type Culture Collection), which is a human pharyngeal squamous cell carcinoma line, was cultured and grown in a 10% bovine fetal serum-containing MEM culture. The cells were separated from the flask using 0.05% Trypsin-EDTA solution and collected. After washing with PBS, the cells were suspended in PBS so as to be 5×10^7 cells/mL and then kept on ice. 0.1 mL of cell suspension liquid were subcutaneously injected in the right ventral portion of 6-week old nude mice (Charles River Laboratories Japan, Inc.). Each mouse was observed daily, and notes made appropriately in cases where abnormal conditions were found. Calipers were used to measure the tumor size over time, and the tumor size was calculated based on the calculation formula: major axis×(minor axis squared)÷2. At the point when the tumor size was 100 to 200 mm^3, the mice were separated into groups such that the average values of the tumor sizes and the body weights of mice were uniform among the test groups (five mice per test group), and the drug was administered into the caudal vein (0.2 mL/20 g; 3 times in 7-day intervals).

For data set [10] the following is noted: complex with HP-β-cyclodextrin, Non-patent Literature 6, cited from earlier work.
Setting [11] is: blood plasma, 1.0 mg/kg into caudal vein, LOX cancer-bearing mice.
The mark [12] stands for this setting: tumor tissue, 1.0 mg/kg into caudal vein, LOX cancer-bearing mice.

Where a name gives a salt, the structure may show the parent alone. Read-outs that look alike come from different tables or passages of the source.

Take `CCC(O)C(C)C1OC1CC(C)(O)/C=C/C=C(\C)C1OC(=O)CC(O)CCC(C)(O)C(OC(=O)N2CCN(C3CCCCCC3)CC2)/C=C/C1C` (stereo not drawn) [E7107, (8E,12E,14E)-7-{(4-cycloheptylpiperazin-1-yl)carbonyl}oxy-3,6,16,21-tetrahydroxy-6,10,12,16,20-pentamethyl-18,19-epoxytricosa-8,12,14-trien-11-olide]: the “Body weight” value in data set [1] came out at 20.32 g. Besides, the “Tumor (mm^3)” value in [2] came out at 204.34 mm^3. In addition, the “Entrapment ratio (%)” value in data set [3] (5° C., 5 minutes) came out at 0%; in data set [3] (5° C., 1 hour) it was 0%; in data set [3] (5° C., 6 hours), 0%; in data set [3] (20° C., 1 minute), 0%; in [3] (20° C., 5 minutes), 0%; in data set [3] (20° C., 1 hour), 13.1%. The “Entrapment ratio (%)” value in [3] (20° C., 6 hours) was 49.6%; in data set [3] (40° C., 1 minute) it was 4.1%; in data set [3] (40° C., 5 minutes), 87.5%; in data set [3] (50° C., 1 minute), 56.8%; in data set [3] (60° C., 1 minute), 99.2%.

In data set [4] (setting [11]), `C=C1C[C@@H]2CC[C@@]34C[C@H]5O[C@H]6[C@@H](O3)[C@H]3O[C@H](CC[C@@H]3O[C@H]6[C@H]5O4)CC(=O)C[C@@H]3[C@@H](OC)[C@@H](C[C@H](O)CN)O[C@H]3C[C@H]3O[C@@H](CC[C@@H]1O2)C[C@@H](C)C3=C` [eribulin mesylate] showed a mean residence time (MRT) of 3.3 h, a clearance of 40.3 mL/min/kg and a half-life of 3.7 h. Further, in [4] (blood plasma, 1.0 mg/kg into caudal vein, LOX cancer-bearing mice, read-out: Vss), the Vd was 8.03 L/kg. In data set [4] (setting [12]), this compound registered an AUC(0-inf) of 6290 ng·h/mL, an AUC(0-t) of 4650 ng·h/mL, a Cmax of 323 ng/g and an MRT of 27.7 h. For the same compound, in data set [4] (setting [12]), the Tmax was 0.25 h and the half-life was 17.8 h. Further, in data set [4] (plasma, 1 mg/kg), the AUC(0-inf) amounted to 365 ng·h/mL and the exposure AUC(0-t) is 363 ng·h/mL. In addition, the Maximum tolerance dose in data set [5] came to 4 mg/kg. In data set [5] (listed as free bodies), this compound had a Maximum tolerance dose of 4.0 mg/kg. In addition, the “Complete disappearance of the tumor / mice completely healed” value in data set [6] is reported as 2 out of 5. Moreover, in [7], the “Tumor volume versus the untreated group” value was “no significant difference”. Besides, the Tumor-reducing effect result in data set [8] is recorded as “tumor-reducing effect was not obtained”. For the same compound, the Tumor-reducing effect entry in [9] was “tumor-reducing effect was not obtained”.

Consider `CC(C(=O)O)c1cccc(C(=O)c2ccccc2)c1` (stereo not drawn) [ketoprofen], for which the values for the Entrapment ratio entry in [10] (MLVs (multilamellar vesicles)) and in data set [10] (SUVs (small unilamellar vesicles)) were “approximately 75%” and “approximately 55%”, respectively.
